Assay results as given in US11846630B2, “Coordinately-ordered single cells with individual identities for high-throughput assay” (Northeastern University, priority 2019, dated 2023).

Key:
OT-1 cells = experiment: Microwell ELISA immunoassay of interferon-γ secreted by peptide-stimulated OT-1 cells; format: cell-based; conditions: OVA peptide concentration 0.5, 1, 2, 4, 8 μg/mL; FIG. 12, panel C
Description: Surface of the microwells can be chemically modified with capture agents, such as antibodies, to detect cytokines secreted by T cells during the T cell-cancer cells interaction. […] The cytokine detection is based on ELISA sandwich structure and quantified based on the fluorescence intensity of Avidin Texas red. Due to the existence of BSA on the top layer, the majority of antibodies were only absorbed on the inner surface of the microwells (bottom and inside wall of microwell), which enhanced capturing signals and reduced background. The location of the capture antibody after BSA saturation was indicated using Rhodamine-BSA and FITC-Antibody and shown in FIG. 11, panel B, in which BSA only covered the top layer of microwell and the green fluorescent capture antibody was mainly present inside the microwells after BSA saturation, enhancing the signals from the microwells. The fluorescence images of interferon-γ at two concentrations are shown in FIG. 11, panel C, and the standard curve of fluorescence versus interferon-γ concentration is presented in FIG. 11, panel D. According to the standard curve, imaged-based ELISA using the microwells detected a wide range of the cytokine concentrations from 0.1 ng/mL to 5 ng/mL, and the concentrations determined based on fluorescence intensity ranged from 0.8×10^5 to 2.7×10^5. […]

HeLa cells = experiment: ROS assay (CellROX Orange) on coordinated single cell pattern; conditions: 1 μM doxorubicin for 6 hours

Row | Compound | intensity of the interferon-γ fluorescence (OT-1 cells) | ROS orange signal intensity after subsequent X-ray exposure (HeLa cells; then X-ray 10.8 Gy, compared with doxorubicin alone) | ROS orange signal (HeLa cells; identical cell analysis, FIG. 3)
1 | SINFEKL [OVA peptide, OVA peptide (SINFEKL) used to stimulate OT-1 cells to secrete cytokines] | increased | – | –
2 | COc1cccc2c1C(=O)c1c(O)c3c(c(O)c1C2=O)C[C@@](O)(C(=O)CO)C[C@@H]3O[C@H]1C[C@H](N)[C@H](O)[C@H](C)O1 [doxorubicin] | – | much higher level of damage than that of doxorubicin alone | increases
